{"source": "patent US20120009644A1", "about": "“Tissue Implants for Implantation and Methods for Preparing the Same” (CRYOLIFE, INC., priority 2010, published 2012)", "origin": "cited, not measured here", "tested_on": "sensitive bacteria", "settings": "literature review", "data": [{"smiles": "NCC[C@H](O)C(=O)N[C@@H]1C[C@H](N)[C@@H](O[C@H]2O[C@H](CN)[C@@H](O)[C@H](O)[C@H]2O)[C@H](O)[C@H]1O[C@H]1O[C@H](CO)[C@@H](O)[C@H](N)[C@H]1O", "note": "[amikacin]", "values": [{"measurement": "minimum inhibitory concentration against sensitive bacteria (MIC) range", "value": "0.125 to 32", "unit": "µg/mL"}]}]}
